“And” between values parts separate entries of the source, which are not always exact repeats. Equal values may be shown once.
Organism: Rattus norvegicus
Test: DrugMatrix - Regimen: Daily Repeat
Assay type: toxicity, organism-based, Sprague-Dawley
Design: regimen Daily Repeat, gender Male, age 6-8 weeks
Details: in vivo, ip, route intraperitoneal, vehicle 100 % SALINE; for ABSOLUTE BASOPHIL / ABSOLUTE EOSINOPHIL / ABSOLUTE LYMPHOCYTE / ABSOLUTE MONOCYTE / ABSOLUTE SEGMENTED NEUTROPHIL / BASOPHIL / EOSINOPHIL / ERYTHROCYTE COUNT / HEMATOCRIT / HEMOGLOBIN / LEUKOCYTE COUNT / LYMPHOCYTE / MEAN CORPUSCULAR HEMOGLOBIN / MEAN CORPUSCULAR HEMOGLOBIN CONCENTRATION / MEAN CORPUSCULAR VOLUME / MONOCYTE / NEUTROPHIL / PLATELET COUNT: tissue Blood; for ALANINE AMINOTRANSFERASE / ALBUMIN / ALKALINE PHOSPHATASE / ASPARTATE AMINOTRANSFERASE / BLOOD UREA NITROGEN / CARBON DIOXIDE / CHLORIDE / CHOLESTEROL / CREATINE PHOSPHOKINASE / CREATININE / GLUCOSE / LACTATE DEHYDROGENASE / LIPASE / PHOSPHORUS / POTASSIUM / SODIUM / TOTAL BILIRUBIN / TOTAL PROTEIN / URIC ACID: tissue Plasma
[1] = 0 mg/kg, 120 h, dose level Control, time 5 day
[2] = 0 mg/kg, […], dose level Control, time 14 day
[3] = 0 mg/kg, […], dose level Control, time 28 day
[4] = 40 mg/kg, 120 h, dose level High, time 5 day
[5] = 40 mg/kg, […], dose level High, time 14 day
[6] = 40 mg/kg, […], dose level High, time 28 day

NC[C@H]1O[C@H](O[C@H]2[C@H](O)[C@@H](O[C@H]3O[C@H](CO)[C@@H](O)[C@H](N)[C@H]3O)[C@H](N)C[C@@H]2N)[C@H](N)C[C@@H]1O [TOBRAMYCIN]
ABSOLUTE BASOPHIL [1]: 32 cells/µL
ABSOLUTE EOSINOPHIL [1]: 110 cells/µL
ABSOLUTE LYMPHOCYTE [1]: 6630 cells/µL
ABSOLUTE MONOCYTE [1]: 140 cells/µL
ABSOLUTE SEGMENTED NEUTROPHIL [1]: 1170 cells/µL
BASOPHIL [1]: 0.38% and 0.35%
EOSINOPHIL [1]: 1.28% and 0.62%
ERYTHROCYTE COUNT [1]: 7.45 x10E6/uL and 7.26 x10E6/uL
HEMATOCRIT [1]: 45.74% and 47.97%
HEMOGLOBIN [1]: 14.72 G/DL and 15.38 G/DL
LEUKOCYTE COUNT [1]: 8.11 x10E3/uL and 8.68 x10E3/uL
LYMPHOCYTE [1]: 81.3% and 86.77%
MEAN CORPUSCULAR HEMOGLOBIN [1]: 19.76 pg and 21.18 pg
MEAN CORPUSCULAR HEMOGLOBIN CONCENTRATION [1]: 32.16 G/DL and 32.05 G/DL
MEAN CORPUSCULAR VOLUME [1]: 61.38 fL and 66.15 fL
MONOCYTE [1]: 1.76% and 1.57%
NEUTROPHIL [1]: 14.9% and 9.53%
PLATELET COUNT [1]: 1322.4 x10E3/uL and 1786 x10E3/uL
ALANINE AMINOTRANSFERASE [1]: 25.8 u/L and 20.5 u/L
ALBUMIN [1]: 3.64 G/DL and 4.35 G/DL
ALKALINE PHOSPHATASE [1]: 233.6 u/L and 300 u/L
ASPARTATE AMINOTRANSFERASE [1]: 81.4 u/L and 86.75 u/L
BLOOD UREA NITROGEN [1]: 14.4 mg/dL and 17 mg/dL
CARBON DIOXIDE [1]: 29 mmol/L
CHLORIDE [1]: 105.6 MEQ/L and 106.25 MEQ/L
CHOLESTEROL [1]: 69.2 mg/dL and 51.25 mg/dL
CREATINE PHOSPHOKINASE [1]: 384.75 u/L
CREATININE [1]: 0.56 mg/dL and 0.47 mg/dL
GLUCOSE [1]: 125.4 mg/dL and 128.75 mg/dL
LACTATE DEHYDROGENASE [1]: 105.4 u/L and 145 u/L
LIPASE [1]: 22.4 u/L and 13.25 u/L
PHOSPHORUS [1]: 11.48 mg/dL and 11.8 mg/dL
POTASSIUM [1]: 5.52 MEQ/L and 6.58 MEQ/L
SODIUM [1]: 147 MEQ/L and 151 MEQ/L
TOTAL BILIRUBIN [1]: 0.2 mg/dL and 0.33 mg/dL
TOTAL PROTEIN [1]: 6.1 G/DL and 6.53 G/DL
URIC ACID [1]: 1.06 mg/dL and 1.95 mg/dL
ABSOLUTE BASOPHIL [2]: 130 cells/µL
ABSOLUTE EOSINOPHIL [2]: 140 cells/µL
ABSOLUTE LYMPHOCYTE [2]: 13500 cells/µL
ABSOLUTE MONOCYTE [2]: 400 cells/µL
ABSOLUTE SEGMENTED NEUTROPHIL [2]: 2330 cells/µL
HEMATOCRIT [2]: 45.98%
ABSOLUTE BASOPHIL [3]: 91 cells/µL
ABSOLUTE EOSINOPHIL [3]: 110 cells/µL
ABSOLUTE LYMPHOCYTE [3]: 9910 cells/µL
ABSOLUTE MONOCYTE [3]: 210 cells/µL
ABSOLUTE SEGMENTED NEUTROPHIL [3]: 1560 cells/µL
BASOPHIL [3]: 0.77%
EOSINOPHIL [3]: 0.92%
ERYTHROCYTE COUNT [3]: 8.21 x10E6/uL
HEMATOCRIT [3]: 47.53%
HEMOGLOBIN [3]: 15.65 G/DL
LEUKOCYTE COUNT [3]: 11.91 x10E3/uL
LYMPHOCYTE [3]: 83.34%
MEAN CORPUSCULAR HEMOGLOBIN [3]: 19.07 pg
MEAN CORPUSCULAR HEMOGLOBIN CONCENTRATION [3]: 32.93 G/DL
MEAN CORPUSCULAR VOLUME [3]: 57.9 fL
MONOCYTE [3]: 1.68%
NEUTROPHIL [3]: 12.97%
PLATELET COUNT [3]: 1323.8 x10E3/uL
CARBON DIOXIDE [2]: 25 mmol/L
ALANINE AMINOTRANSFERASE [3]: 30 u/L
ALBUMIN [3]: 3.71 G/DL
ALKALINE PHOSPHATASE [3]: 186.8 u/L
ASPARTATE AMINOTRANSFERASE [3]: 78.2 u/L
BLOOD UREA NITROGEN [3]: 14.2 mg/dL
CHLORIDE [3]: 105.4 MEQ/L
CHOLESTEROL [3]: 44.9 mg/dL
CREATINE PHOSPHOKINASE [3]: 334.3 u/L
CREATININE [3]: 0.6 mg/dL
GLUCOSE [3]: 147.2 mg/dL
LACTATE DEHYDROGENASE [3]: 123.1 u/L
LIPASE [3]: 9.6 u/L
PHOSPHORUS [3]: 10.01 mg/dL
POTASSIUM [3]: 6.57 MEQ/L
SODIUM [3]: 149.5 MEQ/L
TOTAL BILIRUBIN [3]: 0.21 mg/dL
TOTAL PROTEIN [3]: 6.66 G/DL
URIC ACID [3]: 1.26 mg/dL
ABSOLUTE BASOPHIL [4]: 78 cells/µL
ABSOLUTE EOSINOPHIL [4]: 120 cells/µL
ABSOLUTE LYMPHOCYTE [4]: 8040 cells/µL
ABSOLUTE MONOCYTE [4]: 210 cells/µL
ABSOLUTE SEGMENTED NEUTROPHIL [4]: 920 cells/µL
BASOPHIL [4]: 0.78% and 0.42%
EOSINOPHIL [4]: 1.32% and 0.7%
ERYTHROCYTE COUNT [4]: 7.61 x10E6/uL and 7.29 x10E6/uL
HEMATOCRIT [4]: 45.66% and 46.27%
HEMOGLOBIN [4]: 15.22 G/DL and 14.92 G/DL
LEUKOCYTE COUNT [4]: 9.41 x10E3/uL and 6.74 x10E3/uL
LYMPHOCYTE [4]: 84.78% and 87.65%
MEAN CORPUSCULAR HEMOGLOBIN [4]: 20.04 pg and 20.48 pg
MEAN CORPUSCULAR HEMOGLOBIN CONCENTRATION [4]: 33.38 G/DL and 32.25 G/DL
MEAN CORPUSCULAR VOLUME [4]: 60.02 fL and 63.45 fL
MONOCYTE [4]: 2.34% and 1.52%
NEUTROPHIL [4]: 10.36% and 8.62%
PLATELET COUNT [4]: 1436.6 x10E3/uL and 1523 x10E3/uL
ALANINE AMINOTRANSFERASE [4]: 32.4 u/L and 20.5 u/L
ALBUMIN [4]: 3.42 G/DL and 4.17 G/DL
ALKALINE PHOSPHATASE [4]: 217.6 u/L and 314.25 u/L
ASPARTATE AMINOTRANSFERASE [4]: 80.2 u/L and 91.75 u/L
BLOOD UREA NITROGEN [4]: 14.8 mg/dL and 15.25 mg/dL
CARBON DIOXIDE [4]: 25.75 mmol/L
CHLORIDE [4]: 109.8 MEQ/L and 108.25 MEQ/L
CHOLESTEROL [4]: 58.4 mg/dL and 56 mg/dL
CREATINE PHOSPHOKINASE [4]: 257.6 u/L and 601.5 u/L
CREATININE [4]: 0.52 mg/dL and 0.5 mg/dL
GLUCOSE [4]: 127.2 mg/dL and 121.75 mg/dL
LACTATE DEHYDROGENASE [4]: 84.6 u/L and 185.75 u/L
LIPASE [4]: 17 u/L and 8.25 u/L
PHOSPHORUS [4]: 10.22 mg/dL and 12.03 mg/dL
POTASSIUM [4]: 6.26 MEQ/L and 5.68 MEQ/L
SODIUM [4]: 151.2 MEQ/L and 152 MEQ/L
TOTAL BILIRUBIN [4]: 0.14 mg/dL and 0.3 mg/dL
TOTAL PROTEIN [4]: 5.84 G/DL and 6.38 G/DL
URIC ACID [4]: 0.98 mg/dL and 1.82 mg/dL
ABSOLUTE BASOPHIL [5]: 120 cells/µL
ABSOLUTE EOSINOPHIL [5]: 60 cells/µL
ABSOLUTE LYMPHOCYTE [5]: 7970 cells/µL
ABSOLUTE MONOCYTE [5]: 180 cells/µL
ABSOLUTE SEGMENTED NEUTROPHIL [5]: 970 cells/µL
ABSOLUTE BASOPHIL [6]: 110 cells/µL
ABSOLUTE EOSINOPHIL [6]: 140 cells/µL
ABSOLUTE LYMPHOCYTE [6]: 11000 cells/µL
ABSOLUTE MONOCYTE [6]: 270 cells/µL
ABSOLUTE SEGMENTED NEUTROPHIL [6]: 2010 cells/µL
BASOPHIL [6]: 0.75%
EOSINOPHIL [6]: 1.01%
ERYTHROCYTE COUNT [6]: 8.16 x10E6/uL
HEMATOCRIT [6]: 47.35%
HEMOGLOBIN [6]: 15.56 G/DL
LEUKOCYTE COUNT [6]: 13.61 x10E3/uL
LYMPHOCYTE [6]: 82.08%
MEAN CORPUSCULAR HEMOGLOBIN [6]: 19.08 pg
MEAN CORPUSCULAR HEMOGLOBIN CONCENTRATION [6]: 32.87 G/DL
MEAN CORPUSCULAR VOLUME [6]: 58.02 fL
MONOCYTE [6]: 1.93%
NEUTROPHIL [6]: 13.77%
PLATELET COUNT [6]: 1300.9 x10E3/uL
CARBON DIOXIDE [5]: 24 mmol/L
ALANINE AMINOTRANSFERASE [6]: 28.5 u/L
ALBUMIN [6]: 3.56 G/DL
ALKALINE PHOSPHATASE [6]: 137.2 u/L
ASPARTATE AMINOTRANSFERASE [6]: 79.3 u/L
BLOOD UREA NITROGEN [6]: 16.3 mg/dL
CHLORIDE [6]: 108.2 MEQ/L
CHOLESTEROL [6]: 59.4 mg/dL
CREATINE PHOSPHOKINASE [6]: 132.4 u/L
CREATININE [6]: 0.68 mg/dL
GLUCOSE [6]: 127.2 mg/dL
LACTATE DEHYDROGENASE [6]: 83.6 u/L
LIPASE [6]: 12.4 u/L
PHOSPHORUS [6]: 8.3 mg/dL
POTASSIUM [6]: 5.48 MEQ/L
SODIUM [6]: 152.3 MEQ/L
TOTAL BILIRUBIN [6]: 0.18 mg/dL
TOTAL PROTEIN [6]: 6.53 G/DL
URIC ACID [6]: 0.96 mg/dL
